Experimental data as given in patent US20250313552A1, “NICOTINATE ESTERS AND THERAPEUTIC METHODS OF USE THEREOF” (New Frontier Bio, Inc., priority 2024, published 2025).

Test system: Keratinocytes
Assay: NAD assay in keratinocytes (NAD+ increase)
Type: cell-based
Conditions: 3 hours incubation with compound, normalized NAD, ratio vs PBS control
Method: Keratinocytes were plated in 12-well tissue culture plates at a density of 200,000 cells per well. The wells contained 0.75 mL DMEM growth medium with 2% HI FBS and cells were incubated overnight at 37° C. at 5% CO2. The following day, cells were dosed with the desired concentration of each compound and incubated for 3 hours. Following the incubation period, cell monolayers were washed with 200 μL of PBS. Cells were then allowed to lift using 0.25% trypsin for 15 minutes. After lifting, cells were collected into a sterile 1.5 mL centrifuge tube containing 400 μL of DMEM with 2% HI FBS. The cell lysates then centrifuged at 500×g for 5 minutes. Following this, the supernatant was aspirated off of the cell pellet and cells were washed again in 200 μL of PBS and centrifuged at 500×g for 5 minutes. PBS was aspirated off of the cell pellet and 400 μL of cold extraction buffer was added. Each centrifuge tube was then vortexed for 10 seconds. The resulting samples were centrifuged at 13,000×g for 10 minutes at 4° C. to remove insoluble material. After centrifuging, 50 μL of each sample was used to determine in duplicates the total protein concentration by a BCA protein assay kit. The remaining samples were then deproteinized by centrifuging and filtering them through a 10 kDa cut-off spin filter at 13,000xg for 10 minutes at 4° C. Following deproteinization, the samples were loaded into a 96 well plate in duplicates. The amount loaded was dependent on their protein concentration to ensure a uniform protein content for each sample. The final volume in the well was brought up to 50 μL using the cell extraction buffer. 50 μL of each standard was added to the appropriate wells. 98 μL of cycling buffer and 2 μL of NAD cycling enzyme were added to each well and the wells were incubated at room temperature for 5 minutes. 10 μL of developer was added to each well and the plate was incubated at room temperature for one hour. The reaction was stopped by adding 10 μL of stop solution to each well. The absorbance of each well was measured at 450 nm using a plate reader. A standard curve was plotted and normalized NAD values were determined.

With `CCCCCCCCCCCCCCCC(=O)OC[C@@H](O)[C@@H]1OC(=O)C(OC(=O)c2cccnc2)=C1OC(=O)c1cccnc1` [Compound 1, (S)-2-((R)-1-hydroxy-2-(palmitoyloxy)ethyl)-5-oxo-2,5-dihydrofuran-3,4-diyl dinicotinate] as the compound, how does the “NAD+ increase ratio compared to PBS control” value (from here on “NAD+ increase ratio”) read?
Its value is 8.19.

With `CCCCCCCCCCCCCCCC(=O)OC[C@@H](O)[C@@H]1OC(=O)C(OC(=O)c2cccnc2)=C1O` [Compound 2, (S)-4-hydroxy-5-((R)-1-hydroxy-2-(palmitoyloxy)ethyl)-2-oxo-2,5-dihydrofuran-3-yl nicotinate] as the compound, how does the “NAD+ increase ratio” value read?
The value was 2.53.

With `CCCCCCCCCCCCCCCC(=O)OC[C@@H](O)[C@@H]1OC(=O)C(O)=C1OC(=O)c1cccnc1` [Compound 3, (S)-4-hydroxy-2-((R)-1-hydroxy-2-(palmitoyloxy)ethyl)-5-oxo-2,5-dihydrofuran-3-yl nicotinate] as the compound, how does the “NAD+ increase ratio” value read?
Its value is 2.77.

For `CCCCCCCCCCCCCCCC(=O)OC[C@H](OC(=O)c1cccnc1)[C@H]1OC(=O)C(OC(=O)c2cccnc2)=C1OC(=O)c1cccnc1` [Compound 4, (R)-2-((S)-1-(nicotinoyloxy)-2-(palmitoyloxy)ethyl)-5-oxo-2,5-dihydrofuran-3,4-diyl dinicotinate], which “NAD+ increase ratio” value is on record?
Its value is 3.04.

With `O=C(OCc1cc(=O)c(OC(=O)c2cccnc2)co1)c1cccnc1` [Compound 5, (5-(nicotinoyloxy)-4-oxo-4H-pyran-2-yl)methyl nicotinate] as the compound, how does the “NAD+ increase ratio” value read?
The value was 1.51.

`O=C1O[C@H]([C@@H](O)COC(=O)c2cccnc2)C(O)=C1O` [Compound 6, (S)-2-((R)-3,4-dihydroxy-5-oxo-2,5-dihydrofuran-2-yl)-2-hydroxyethyl nicotinate] was tested. Which “NAD+ increase ratio” value did it give?
The value was 0.99.

`O=C1O[C@H]([C@@H](O)COC(=O)c2cccnc2)C(O)=C1O[C@H]1O[C@H](COC(=O)c2cccnc2)[C@@H](O)[C@H](O)[C@H]1O` [Compound 7, (S)-2-hydroxy-2-((R)-3-hydroxy-5-oxo-4-(((2R,3R,4S,5S,6R)-3,4,5-trihydroxy-6-((nicotinoyloxy)methyl)tetrahydro-2H-pyran-2-yl)oxy)-2,5-dihydrofuran-2-yl)ethyl nicotinate] was tested. Which “NAD+ increase ratio” value did it give?
The value was 1.5.

With `O=C1O[C@H]([C@@H](O)COC(=O)c2cccnc2)C(O)=C1O[C@H]1O[C@H](CO)[C@@H](O)[C@H](O)[C@H]1O` [Compound 8, (S)-2-hydroxy-2-((R)-3-hydroxy-5-oxo-4-(((2R,3R,4S,5S,6R)-3,4,5-trihydroxy-6-(hydroxymethyl)tetrahydro-2H-pyran-2-yl)oxy)-2,5-dihydrofuran-2-yl)ethyl nicotinate] as the compound, how does the “NAD+ increase ratio” value read?
The value was 1.5.

For `O=C(CCC[P+](c1ccccc1)(c1ccccc1)c1ccccc1)NCCOC(=O)c1cccnc1` [Compound 9, (4-((2-(nicotinoyloxy)ethyl)amino)-4-oxobutyl)triphenylphosphonium], which “NAD+ increase ratio” value is on record?
Its value is 1.67.

For `O=C(/C=C/C=C/c1ccc2c(c1)OCO2)NCCOC(=O)c1cccnc1` [Compound 10, 2-((2E,4E)-5-(benzo[d][1,3]dioxol-5-yl)penta-2,4-dienamido)ethyl nicotinate], which “NAD+ increase ratio” value is on record?
The value was 1.57.

With `CC(C)(COC(=O)c1cccnc1)C(OC(=O)c1cccnc1)C(=O)NCCCOC(=O)c1cccnc1` (stereo not drawn) [Compound 11, 2,2-dimethyl-4-((3-(nicotinoyloxy)propyl)amino)-4-oxobutane-1,3-diyl dinicotinate] as the compound, how does the “NAD+ increase ratio” value read?
Its value is 2.7.

`NC(=O)c1ccc[n+]([C@@H]2O[C@H](COC(=O)CCCCC3CCSS3)[C@@H](OC(=O)CCCCC3CCSS3)[C@H]2OC(=O)CCCCC2CCSS2)c1` (stereo partly drawn) [Compound 12, 1-((2R,3R,4R,5R)-3,4-bis((5-(1,2-dithiolan-3-yl)pentanoyl)oxy)-5-(((5-(1,2-dithiolan-3-yl)pentanoyl)oxy)methyl)tetrahydrofuran-2-yl)-3-carbamoylpyridin-1-ium] was tested. Which “NAD+ increase ratio” value did it give?
Its value is 1.16.

How did the “NAD+ increase ratio” value turn out when `NC(=O)c1ccc[n+]([C@@H]2O[C@H](COC(=O)c3cccnc3)[C@@H](OC(=O)c3cccnc3)[C@H]2OC(=O)c2cccnc2)c1` [Compound 13, 1-((2R,3R,4R,5R)-3,4-bis(nicotinoyloxy)-5 ((nicotinoyloxy)methyl)tetrahydrofuran-2-yl)-3-carbamoylpyridin-1-ium] was run?
Its value is 1.67.

`CCCCCCCCCCCCCCCC(=O)OC[C@H](O)[C@H]1OC(=O)C(OC(=O)c2cccnc2)=C1OC(=O)c1cccnc1` [Compound 14, (R)-2-((S)-1-hydroxy-2-(palmitoyloxy)ethyl)-5-oxo-2,5-dihydrofuran-3,4-diyl dinicotinate] was tested. Which “NAD+ increase ratio” value did it give?
The value was 8.33.

For `CCCCCCCCCCCCCCCC(=O)OC[C@@H](O)[C@H]1OC(=O)C(OC(=O)c2cccnc2)=C1OC(=O)c1cccnc1` [Compound 15, (R)-2-((R)-1-hydroxy-2-(palmitoyloxy)ethyl)-5-oxo-2,5-dihydrofuran-3,4-diyl dinicotinate], which “NAD+ increase ratio” value is on record?
Its value is 1.84.
